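Step 1: Grow cells in 96-well plates. Step 2: Expose to compound for 48 hours at 5 concentrations. Step 3: Interpolate endpoints linearly; if unreached, use highest concentration. Abbreviation: GI50, concentration required for 50% inhibition of growth. The concentration for full growth arrest is given as TGI.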
Assays:
Experiment in all cases: NCI-60 cell line screen, 48 h
UACC-257 melanoma = test system: UACC-257 melanoma
SF-539 CNS = test system: SF-539 CNS
SR leukemia = test system: SR leukemia
MCF7 breast = test system: MCF7 breast
K-562 leukemia = test system: K-562 leukemia
A549 NSCLC = test system: A549 NSCLC
M14 melanoma = test system: M14 melanoma
MDA-MB-231 breast = test system: MDA-MB-231 breast
MOLT-4 leukemia = test system: MOLT-4 leukemia
SW-620 colon = test system: SW-620 colon
PC-3 prostate = test system: PC-3 prostate
MDA-MB-468 breast = test system: MDA-MB-468 breast
HL-60(TB) leukemia = test system: HL-60(TB) leukemia
HS 578T breast = test system: HS 578T breast
DU-145 prostate = test system: DU-145 prostate
NCI-H226 lung = test system: NCI-H226 lung
SN12C renal = test system: SN12C renal
SF-268 CNS = test system: SF-268 CNS
NCI-H23 lung = test system: NCI-H23 lung
SNB-19 CNS = test system: SNB-19 CNS
NCI-H522 lung = test system: NCI-H522 lung
SK-MEL-5 melanoma = test system: SK-MEL-5 melanoma
SNB-75 CNS = test system: SNB-75 CNS
CCRF-CEM leukemia = test system: CCRF-CEM leukemia
MDA-MB-435 = test system: MDA-MB-435
SK-OV-3 ovarian = test system: SK-OV-3 ovarian
HCC-2998 colon = test system: HCC-2998 colon
BT-549 breast = test system: BT-549 breast

Question: With `O=C1C=CC(=CC=C2N(Cc3ccc4ccccc4c3)c3ccccc3N2Cc2ccc3ccccc3c2)C=C1` as the compound, how does the GI50 (UACC-257 melanoma) read?
Answer: 1680 nM

Question: What about the TGI (UACC-257 melanoma) of the same compound?
Answer: 3610 nM

Question: And the GI50 (SF-539 CNS)?
Answer: 1730 nM

Question: What about the TGI (SF-539 CNS) of the same compound?
Answer: 4070 nM

Question: What about the GI50 (SR leukemia) of the same compound?
Answer: 902 nM

Question: What about the TGI (SR leukemia) of the same compound?
Answer: 3620 nM

Question: What about the GI50 (MCF7 breast) of the same compound?
Answer: 1190 nM

Question: What about the TGI (MCF7 breast) of the same compound?
Answer: 2540 nM

Question: And the GI50 (K-562 leukemia)?
Answer: 514 nM

Question: What about the GI50 (A549 NSCLC) of the same compound?
Answer: 1530 nM

Question: What about the TGI (A549 NSCLC) of the same compound?
Answer: > 100000 nM

Question: What about the GI50 (M14 melanoma) of the same compound?
Answer: 999 nM

Question: And the TGI (M14 melanoma)?
Answer: 2520 nM

Question: What about the GI50 (MDA-MB-231 breast) of the same compound?
Answer: 1400 nM

Question: And the TGI (MDA-MB-231 breast)?
Answer: 2760 nM

Question: What about the GI50 (MOLT-4 leukemia) of the same compound?
Answer: 1480 nM

Question: And the TGI (MOLT-4 leukemia)?
Answer: 4320 nM

Question: And the GI50 (SW-620 colon)?
Answer: 1260 nM

Question: And the TGI (SW-620 colon)?
Answer: 2660 nM

Question: What about the GI50 (PC-3 prostate) of the same compound?
Answer: 956 nM

Question: What about the TGI (PC-3 prostate) of the same compound?
Answer: 3100 nM

Question: And the GI50 (MDA-MB-468 breast)?
Answer: 399 nM

Question: And the TGI (MDA-MB-468 breast)?
Answer: 1490 nM

Question: And the GI50 (HL-60(TB) leukemia)?
Answer: 385 nM

Question: What about the TGI (HL-60(TB) leukemia) of the same compound?
Answer: 1980 nM

Question: And the GI50 (HS 578T breast)?
Answer: 1470 nM

Question: And the TGI (HS 578T breast)?
Answer: 4080 nM

Question: And the GI50 (DU-145 prostate)?
Answer: 2670 nM

Question: And the TGI (DU-145 prostate)?
Answer: > 100000 nM

Question: And the GI50 (NCI-H226 lung)?
Answer: 1390 nM

Question: And the TGI (NCI-H226 lung)?
Answer: 2980 nM

Question: What about the GI50 (SN12C renal) of the same compound?
Answer: 1510 nM

Question: And the TGI (SN12C renal)?
Answer: 4680 nM

Question: And the GI50 (SF-268 CNS)?
Answer: 2780 nM

Question: What about the TGI (SF-268 CNS) of the same compound?
Answer: 8810 nM

Question: What about the GI50 (NCI-H23 lung) of the same compound?
Answer: 1250 nM

Question: And the TGI (NCI-H23 lung)?
Answer: 2700 nM

Question: And the GI50 (SNB-19 CNS)?
Answer: 920 nM

Question: What about the TGI (SNB-19 CNS) of the same compound?
Answer: 2340 nM

Question: And the GI50 (NCI-H522 lung)?
Answer: 1480 nM

Question: And the TGI (NCI-H522 lung)?
Answer: 3030 nM

Question: What about the GI50 (SK-MEL-5 melanoma) of the same compound?
Answer: 697 nM

Question: What about the TGI (SK-MEL-5 melanoma) of the same compound?
Answer: 1690 nM

Question: What about the GI50 (SNB-75 CNS) of the same compound?
Answer: 1180 nM

Question: What about the TGI (SNB-75 CNS) of the same compound?
Answer: 3180 nM

Question: And the GI50 (CCRF-CEM leukemia)?
Answer: 1460 nM

Question: And the TGI (CCRF-CEM leukemia)?
Answer: 6220 nM

Question: What about the GI50 (MDA-MB-435) of the same compound?
Answer: 1360 nM

Question: And the TGI (MDA-MB-435)?
Answer: 2690 nM

Question: What about the GI50 (SK-OV-3 ovarian) of the same compound?
Answer: 1720 nM

Question: What about the TGI (SK-OV-3 ovarian) of the same compound?
Answer: 5260 nM

Question: And the GI50 (HCC-2998 colon)?
Answer: 1500 nM

Question: And the TGI (HCC-2998 colon)?
Answer: 3010 nM

Question: What about the GI50 (BT-549 breast) of the same compound?
Answer: 1260 nM

Question: And the TGI (BT-549 breast)?
Answer: 3420 nM

Source: PubChem BioAssay (NCI)
